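Protocol summary: plate cells (96-well), add compound at 5 concentrations, incubate 48 h, interpolate endpoints linearly. TGI denotes the concentration required for complete inhibition of growth.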
How the values were obtained:
Assay in all cases: growth of human tumour cells (NCI), 48 h
BT-549 breast = system: BT-549 breast
CAKI-1 renal = system: CAKI-1 renal
EKVX NSCLC = system: EKVX NSCLC
HCC-2998 colon = system: HCC-2998 colon
HOP-62 NSCLC = system: HOP-62 NSCLC
MALME-3M melanoma = system: MALME-3M melanoma
NCI-H522 lung = system: NCI-H522 lung
RPMI-8226 leukemia = system: RPMI-8226 leukemia
RXF 393 renal = system: RXF 393 renal
SF-268 CNS = system: SF-268 CNS
SF-295 CNS = system: SF-295 CNS
SF-539 CNS = system: SF-539 CNS
SK-MEL-28 melanoma = system: SK-MEL-28 melanoma
UO-31 renal = system: UO-31 renal

Structure (SMILES)	TGI (BT-549 breast) [µM]	TGI (CAKI-1 renal) [µM]	TGI (EKVX NSCLC) [µM]	TGI (HCC-2998 colon) [µM]	TGI (HOP-62 NSCLC) [µM]	TGI (MALME-3M melanoma) [µM]	TGI (NCI-H522 lung) [µM]	TGI (RPMI-8226 leukemia) [µM]	TGI (RXF 393 renal) [µM]	TGI (SF-268 CNS) [µM]	TGI (SF-295 CNS) [µM]	TGI (SF-539 CNS) [µM]	TGI (SK-MEL-28 melanoma) [µM]	TGI (UO-31 renal) [µM]
O=C(O)[C@H](CCC[C@H]1C(=O)O[C@H](c2ccccc2)[C@H](c2ccccc2)N1C(=O)OCc1ccccc1)N[C@@H](c1ccccc1)[C@H](O)c1ccccc1	78.9	> 100	> 100	44	39	42.2	38.6	54	47.9	> 100	81	34.4	39	> 100
C=C1C(=O)O[C@H]2C[C@@H]1[C@@H](O)[C@H](O)[C@@H](C)CCCC(C)=CCC[C@@]2(C)O	25.9	22.3	> 100	60.5	> 100	32.2	33.9	45.3	74.1	73	> 100	30.1	77.7	28.5
CC1(C)COC2=C(C1)C(=O)c1ccccc1C2=O	3.66	3.9	3.59	3.08	3.45	3.29	3.8	4.45	3.51	3.57	3	2.9	3.11	2.21
Cc1nc2sc(C(=O)c3ccc(Cl)cc3)c(N)c2c(-c2ccccc2Cl)c1C(=O)Nc1ccccc1	48	36.8	59	59.9	37	29.2	25.1	62.2	31.3	> 94.9	47.9	30.5	27.4	51.1
COC(=O)C1OC(O[C@H]2CC[C@]3(C)[C@H]4CC=C5[C@@H]6CC(C)(C)CC[C@]6(C(=O)OC6OCC(O)C(O)C6OC6OC(C)C(OC7OCC(O)C(O)C7O)C(OC7OCC(O)(CO)C7O)C6O)[C@H](O)C[C@@]5(C)[C@]4(C)CC[C@H]3C2(C)C)C(O)C(O)C1O (stereo partly specified)	6.55	17.5	8.21	3.79	10.1	15.7	5.78	> 31.1	24.6	24	15.9	> 100	4.69	4.62
CC(Oc1ccccc1)C(=O)NNC(=O)OC(C)(C)C (stereo unspecified)	> 100	> 100	> 100	> 100	> 100	> 100	> 100	> 100	> 100	> 100	> 100	> 100	> 100	> 100
CCC(C)C1=C(O)[N+]2([O-])Oc3ccc(-c4c(O)c(O)c(-c5ccc(OC(C)=O)cc5)c(OC(C)=O)c4OC(C)=O)cc3OC2(C(C)CC)C(=O)N1O (stereo unspecified)	> 50	> 50	> 50	41.5	> 50	> 50	> 50	> 50	> 50	> 50	> 50	> 50	> 50	> 50
Nc1nc(Cl)c(Cl)c(NCC2(O)CCC2)n1	> 100	29.6	> 100	> 100	> 100	> 100	40.9	> 100	> 100	> 100	> 100	> 100	> 100	> 100
COC(=O)C1(SC)C2CCC3C2CCC31 (stereo unspecified)	> 100	> 100	> 100	> 100	> 100	> 100	> 100	> 100	> 100	> 100	> 100	> 100	> 100	> 100

From PubChem BioAssay (NCI)
